Where two headings read alike, the source gives them in different places.
Assays:
LmPDE-B1 = LmPDE-B1 (Leishmania major, UniProt Q6S997); experiment: PDE activity assay in yeast lysates, recombinant LmPDE-B1 (3H-cAMP hydrolysis); type: biochemical; settings: for IC50: read-out: IC50, inhibition of LmPDE-B1 activity
Procedure: (§1) PP5 yeast cells expressing LmPDE-A, LmPDE-B1, and LmPDE-B2, were lysed as described previously (Zoraghi et al. (2001) J. Biol. Chem. 276, 11559-11566). The cells were grown to mid-log to end-log phase in SC-leu medium, collected, resuspended in the original volume of prewarmed YPD medium, and incubated for an additional 3.5 hours at 30° C. to maximize protein expression. The cells were then harvested, washed twice in H2O, pelleted by centrifugation, and stored overnight at −70° C. The cell pellet was thawed on ice and resuspended in ice-cold extraction buffer (50 mM Hepes pH 7.5, 100 mM NaCl, 1× Complete® protease inhibitor cocktail without EDTA (Roche)). Cells were lysed by grinding with glass beads (0.45-0.50 mm) in 2 ml Sarstedt tubes using a FastPrep FP120 cell disrupter (3×45 seconds at setting 4). The lysed cells were centrifuged and glycerol was added to the resulting supernatant to a final concentration of 15% (v/v). Aliquots were snap-frozen in liquid nitrogen and were stored at −70° C.
PDE activity was determined in 50 mM HEPES, pH 7.5, 0.5 mM EDTA, 10 mM MgCl2, and 50 mg/ml BSA in a final assay volume of 100 μl. Each assay contained 50,000 cpm of ^3H-labeled cAMP, with unlabeled cAMP added to adjust the desired total substrate concentration. […] The standard reaction time was set to 15 minutes, and the amount of enzyme was always chosen so that no more than 15% of the substrate was hydrolyzed. Inhibitor studies were done at a cAMP concentration of 1 μM. Inhibitors were dissolved in DMSO, but the final DMSO concentration in the assays never exceeded 1%. Control reactions with DMSO alone were always included. Reactions were stopped by the addition of 25 μl of 0.5 N HCl. For the subsequent dephosphorylation of the AMP, the stopped reactions were neutralized with 20 μl of 1 M Tris base, followed by the addition of 10 μl of alkaline phosphatase (Roche Diagnostics; 1 unit/10 μl). The dephosphorylation reactions were incubated for 15 minutes at 37° C. and were then applied to 1 ml columns of QAE-Sephadex A25 in 30 mM ammonium formiate, pH 6.0. The ^3H-adenosine formed as a reaction product was eluted with 1.6 ml of 30 mM ammonium formiate, pH 6.0 and was collected into 3.5 ml of water-soluble scintillation fluid (Packard Ultima Flo). Assays were performed in triplicate, and data were analyzed using the Graph Pad Prism software package.

LmPDE-B2 = experiment: PDE activity assay in yeast lysates, recombinant LmPDE-B2 (3H-cAMP hydrolysis); type: biochemical, Leishmania major; settings: 100 μM inhibitor, 1 μM cAMP
Procedure: as §1
PDE activity was determined in 50 mM HEPES, pH 7.5, 0.5 mM EDTA, 10 mM MgCl2, and 50 mg/ml BSA in a final assay volume of 100 μl. Each assay contained 50,000 cpm of ^3H-labeled cAMP, with unlabeled cAMP added to adjust the desired total substrate concentration. […] Assays were performed in triplicate, and data were analyzed using the Graph Pad Prism software package.

LmPDE-B1, sequence (Q6S997 entry or part of it): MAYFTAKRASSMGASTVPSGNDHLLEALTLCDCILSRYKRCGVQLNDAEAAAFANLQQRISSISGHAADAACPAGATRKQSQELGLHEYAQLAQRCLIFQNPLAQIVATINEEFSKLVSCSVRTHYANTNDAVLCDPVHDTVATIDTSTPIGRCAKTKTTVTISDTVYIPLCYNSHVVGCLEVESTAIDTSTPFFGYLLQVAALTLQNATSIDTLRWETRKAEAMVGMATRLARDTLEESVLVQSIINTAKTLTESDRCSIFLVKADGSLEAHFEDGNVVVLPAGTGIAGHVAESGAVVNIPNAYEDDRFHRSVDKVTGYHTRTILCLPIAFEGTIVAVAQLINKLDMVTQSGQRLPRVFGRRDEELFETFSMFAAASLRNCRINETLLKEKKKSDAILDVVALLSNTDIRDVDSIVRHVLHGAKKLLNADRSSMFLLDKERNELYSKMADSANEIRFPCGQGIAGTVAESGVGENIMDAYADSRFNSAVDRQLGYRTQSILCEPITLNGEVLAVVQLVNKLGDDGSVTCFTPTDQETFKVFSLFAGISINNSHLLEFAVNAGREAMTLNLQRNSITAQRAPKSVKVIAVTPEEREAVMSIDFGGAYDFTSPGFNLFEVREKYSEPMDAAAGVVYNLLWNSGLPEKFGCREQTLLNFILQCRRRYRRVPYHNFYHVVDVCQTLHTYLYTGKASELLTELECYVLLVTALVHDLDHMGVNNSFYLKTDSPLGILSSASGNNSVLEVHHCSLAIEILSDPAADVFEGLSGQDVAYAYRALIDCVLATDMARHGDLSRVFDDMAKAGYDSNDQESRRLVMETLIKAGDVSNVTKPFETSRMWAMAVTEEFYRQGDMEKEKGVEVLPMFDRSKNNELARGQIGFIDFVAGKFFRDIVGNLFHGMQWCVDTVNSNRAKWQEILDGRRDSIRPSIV

Compound | effect on rate of hydrolysis of cAMP by LmPDE-B1 (LmPDE-B1; 100-fold excess of cGMP) | sensitivity of LmPDE-B1 activity to PDE inhibitor (LmPDE-B1) | IC50 (LmPDE-B1) [µM] | sensitivity of LmPDE-B2 activity to PDE inhibitor (LmPDE-B2) | IC50 (LmPDE-B1; 1 μM cAMP, yeast lysate) [µM] | sensitivity of LmPDE-B1 activity to PDE inhibitor (LmPDE-B1; 100 μM inhibitor, 1 μM cAMP)
Nc1nc2c(ncn2[C@@H]2O[C@@H]3COP(=O)(O)O[C@H]3[C@H]2O)c(=O)[nH]1 [cGMP, cyclic guanosine mono-phosphate] | did not affect | – | – | – | – | –
OCCN(CCO)c1nc(N2CCCCC2)c2nc(N(CCO)CCO)nc(N3CCCCC3)c2n1 [dipyridamole] | – | partly sensitive | 22.6 | partly sensitive | – | –
COc1cc2c(cc1OC)-c1c/c(=N\c3c(C)cc(C)cc3C)n(C)c(=O)n1CC2 [trequinsin] | – | – | – | partly sensitive | 96.6 | partly sensitive
